Results taken from PubChem BioAssay (NCI).
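A five-concentration, 48-hour dose response in 96-well plates underlies each endpoint, interpolated linearly between surrounding concentrations. GI50 is the concentration that inhibits growth by half. TGI: concentration producing complete growth inhibition.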

Key:
Assay in all cases: NCI anticancer screen, dose series, 48 h
[1] = system: KM20L2 colon
[2] = system: XF 498 CNS
[3] = system: DMS 114 small cell lung
[4] = system: M19-MEL melanoma
[5] = system: DLD-1 colon
[6] = system: LXFL 529 NSCLC
[7] = system: HOP-18 NSCLC
[8] = system: DMS 273 small cell lung
[9] = system: RXF-631 renal

SMILES	TGI [1] [µM]	TGI [2] [µM]	TGI [3] [µM]	TGI [4] [µM]	TGI [5] [µM]	TGI [6] [µM]	TGI [7] [µM]	TGI [8] [µM]	GI50 [7] [µM]	GI50 [3] [µM]	GI50 [8] [µM]	GI50 [6] [µM]	TGI [9] [µM]
Nc1ccc2c(c1)C(=O)N(O)C2=O	> 100	> 100	> 100	> 100	> 100	> 100							
CCOC(=O)C1CCn2c(nc3c2c(=O)n(C)c(=O)n3C)S1 (stereo not given)	> 100				> 100	> 100	> 100	> 100					
C/C(=N\NC(=O)c1cccnc1)c1cccc(/C(C)=N/NC(=O)c2cccnc2)n1	> 100		15.9	68.6	> 100	> 100	6.15	25.5	1.06	2.7	5.02	2.47	
CC(=O)N(C)c1ccc2c(ccc[n+]2[O-])c1[N+](=O)[O-]	> 100	> 100	> 100	> 100	> 100	> 100	> 100	> 100					> 100
C[C@]12CC[C@@H]3c4ccccc4CC[C@H]3[C@@H]1CC[C@@H]2O	> 100			> 100	> 100	> 100		> 100					
CC(Sc1ccccc1)C(CO)(CO)[N+](=O)[O-] (stereo not given)	31.7		32.5	30.9	29	27.5	45.6	> 100					
COC(=O)C1C(C)N1C (stereo not given)		> 100	> 100	> 100	> 100	> 100		> 100					> 100
